Laboratory results: patent publication US20070010670A1, “Nitrogen-containing fused ring compounds and use thereof” (Japan Tobacco Inc., priority 2004, published 2007)

biological target: T1, CYP2C9 (Homo sapiens, UniProt P11712); experiment: CYP inhibitory test using human liver microsome; type: in vitro ADME; conditions: model substrate diclofenac, 37° C. 10 min, read-out: CYP2C9 inhibition IC50
T1 construct: Human liver microsome (20 mg protein/mL, 5 μL, Xenotech LLC, purchased from Lenexa KS); tissue Xenotech LLC; host or cells: human liver microsome
T1 sequence (P11712 whole entry): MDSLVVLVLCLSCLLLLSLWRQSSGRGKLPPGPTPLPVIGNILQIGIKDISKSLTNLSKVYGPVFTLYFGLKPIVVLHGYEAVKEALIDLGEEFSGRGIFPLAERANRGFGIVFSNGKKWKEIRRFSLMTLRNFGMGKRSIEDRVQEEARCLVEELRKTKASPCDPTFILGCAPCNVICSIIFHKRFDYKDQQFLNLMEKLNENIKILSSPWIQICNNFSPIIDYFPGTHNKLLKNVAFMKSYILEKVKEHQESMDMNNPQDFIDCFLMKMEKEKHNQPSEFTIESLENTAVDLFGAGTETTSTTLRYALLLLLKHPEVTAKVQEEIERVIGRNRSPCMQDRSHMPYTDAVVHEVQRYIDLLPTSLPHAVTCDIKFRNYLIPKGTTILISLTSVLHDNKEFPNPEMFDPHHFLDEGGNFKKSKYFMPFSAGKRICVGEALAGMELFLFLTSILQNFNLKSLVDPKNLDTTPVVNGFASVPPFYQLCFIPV
Description: Human liver microsome (20 mg protein/mL, 5 μL, Xenotech LLC, purchased from Lenexa KS) was suspended in 100 mM potassium phosphate buffer (70 μL, pH 7.4), mixed with a solution (0.5 μL) of the Example compound dissolved in DMSO and preincubated at 37° C. for 5 min. NADPH producing system coenzyme solution (β-nicotinamide adenine dinucleotide phosphate: 5.2 mM, D-glucose-6-phosphate: 13.2 mM, magnesium chloride: 13.2 mM, glucose-6-phosphate dehydrogenase: 1.8 U/mL) 25 μL, and a model substrate (CYP3A4: midazolam 1 mM, CYP2D6: bufuralol 1 mM, CYP2C9: diclofenac 2 mM) 0.5 μL dissolved in DMSO were added to start the reaction. After incubation at 37° C. for 10 min., acetonitrile (200 μL) containing an internal standard substance (propranolol 1 μM) was added and the mixture was centrifuged (room temperature, 3000 rpm, 20 min). The amount of the metabolite produced from each model substrate in the supernatant was measured by high performance liquid chromatography/mass spectrometry (LC/MS/MS) and each CYP enzyme activity was determined. The concentration showing 50% inhibition (IC50) was calculated relative to the enzyme activity without addition of Example compound (DMSO 0.5 μL added) as 100%.

Structure (SMILES) | IC50
O=C(c1cc(Cl)c(O)c(Cl)c1)N1CCOc2cccc(O)c21 [Example 89, (3,5-dichloro-4-hydroxyphenyl)-(5-hydroxy-2,3-dihydrobenzo[1,4]oxazin-4-yl)-methanone] | 11 µM
Oc1c(Cl)cc(C(=S)N2CCOc3ccccc32)cc1Cl [Example 11, (3,5-dichloro-4-hydroxyphenyl)-(2,3-dihydrobenzo[1,4]oxazin-4-yl)-methanethione] | 12 µM
O=C(c1cc(Cl)nc(Cl)c1)N1CCOc2ccccc21 [Example 42, (2,6-dichloropyridin-4-yl)-(2,3-dihydrobenzo[1,4]oxazin-4-yl)-methanone] | > 50 µM
Nc1ccc2c(c1)N(C(=O)c1cc(Cl)c(O)c(Cl)c1)CCO2 [Example 68, (6-amino-2,3-dihydrobenzo[1,4]oxazin-4-yl)-(3,5-dichloro-4-hydroxyphenyl)-methanone] | 27 µM
CC(=O)N1CCN(C(=O)c2cc(Cl)c(O)c(Cl)c2)c2ccccc21 [Example 73, 1-[4-(3,5-dichloro-4-hydroxybenzoyl)-3,4-dihydro-2H-quinoxalin-1-yl]-ethanone] | > 50 µM
COC(=O)c1ccc2c(c1)N(C(=O)c1cc(Cl)c(O)c(Cl)c1)CCO2 [Example 55, methyl 4-(3,5-dichloro-4-hydroxybenzoyl)-3,4-dihydro-2H-benzo[1,4]oxazine-6-carboxylate] | 19 µM
O=C1CCN(C(=O)c2cc(Cl)c(O)c(Cl)c2)c2ccccc2N1 [Example 37, 5-(3,5-dichloro-4-hydroxybenzoyl)-1,3,4,5-tetrahydrobenzo[b][1,4]diazepin-2-one] | > 50 µM
O=C(c1cc([N+](=O)[O-])c(O)c([N+](=O)[O-])c1)N1CCOc2ccccc21 [Example 30, (2,3-dihydrobenzo[1,4]oxazin-4-yl)-(4-hydroxy-3,5-dinitrophenyl)-methanone] | > 50 µM
COC(=O)c1ccc2c(c1)OCCN2C(=O)c1cc(Cl)c(O)c(Cl)c1 [Example 59, methyl 4-(3,5-dichloro-4-hydroxybenzoyl)-3,4-dihydro-2H-benzo[1,4]oxazine-7-carboxylate] | 8 µM
O=C(c1cc(Cl)c(O)c(Cl)c1)N1CCOc2cccnc21 [Example 36, (3,5-dichloro-4-hydroxyphenyl)-(2,3-dihydropyrido[3,2-b][1,4]oxazin-4-yl)-methanone] | 16 µM
